According to patent publication US9717742B2, “Oxysterol analogue OXY133 induces osteogenesis and hedgehog signaling and inhibits adipogenesis” (The Regents of the University of California, priority 2012, dated 2017):

How the values were obtained:
[1] = tested on: M2-10B4 (M2) bone marrow stromal cells; assay: Alkaline phosphatase (ALP) activity assay on whole cell extracts, M2 cells; assay type: cell-based, mouse; details: data not shown
Lewis rats [2] = details: prior studies (15), 4 weeks; cited from earlier work
[3] = tested on: 8×-Gli luciferase reporter (Hedgehog signaling); assay: Gli-dependent luciferase reporter assay in C3H cells; assay type: cell-based, mouse; details: 48 hours
Experimental: After 4 days ALP activity, and after 7 days the expression of osteogenic genes ALP, BSP, and OSX was measured by quantitative real-time PCR (p<0.001 for control vs. Oxy133, and for Oxy133 vs. Oxy133+Cyc for ALP activity and for the expression of all genes shown). […] (p<0.001 for control vs. Oxy133 at 100 nM, 250 nM, and 1 μM Oxy133). (FIG. 4C) The amount of YFP-Smo captured by 20S beads or control beads was compared in samples containing either no competitor or 50 μM of a free competitor sterol (20S, Oxy133 or Oxy16). The YFP-Smo captured by the beads was measured by Western blot (top) and plotted (bottom) relative to the amount captured in the binding reaction with no competitor.
Cells at 70% confluence in 24-well plates were transiently transfected with Gli-dependent firefly luciferase and Renilla luciferase vectors as we have previously described (17, 18). […] Luciferase activity was assessed using the Dual Luciferase Reporter Assay System (Promega Corporation, Madison, Wis.) according to manufacturer's instructions after cells were treated for 48 hours.

Lewis rats [4] = assay: Posterolateral intertransverse process spinal fusion at L4-L5 in rats; assay type: in vivo, rat; details: for Fusion Rates (%) Manual Palpation / Fusion Rates (%) Micro-CT / Fusion Rates (%) X-ray: at sacrifice (8 weeks); for bilateral fusion on radiographs: four weeks; for trabecular thickness: micro-CT, 8 weeks
Experimental: Thirty-eight 8-week-old male Lewis rats were purchased from Charles River Laboratories (Wilmington, Mass.) and were maintained and housed at the UCLA vivarium in accordance with regulations set forth by the UCLA Office of Protection of Research Subjects. The study was performed under a protocol approved by the UCLA Animal Research Committee (ARC).
Animals were pre-medicated with sustained release buprenorphine thirty minutes prior to surgery and anesthetized with 2% isoflurane administered in oxygen (1 L/min). The surgical site was shaved and disinfected with Betadine and 70% ethanol. Posterolateral intertransverse process spinal fusion at L4-L5 was performed as in prior studies (21, 22). The L6 vertebral body was identified using the iliac crest as a landmark. A 4-cm longitudinal midline incision was made through the skin and subcutaneous tissue over L4-L5 down to the lumbodorsal fascia. A 2-cm longitudinal paramedial incision was then made in the paraspinal muscles bilaterally to expose the transverse processes of L4-L5, which were decorticated with a high-speed burr. The surgical site was then irrigated with sterile saline, and 5 mm×5 mm×13 mm pieces of collagen sponge (Helistat, Integra Life Sciences) containing dimethyl sulfoxide (DMSO) control, rhBMP-2, or Oxy133 were placed bilaterally, with each implant spanning the transverse processes. The implants were then covered with the overlying paraspinal muscles and the lumbodorsal fascia and skin were closed with 4-0 Prolene sutures (Ethicon, Inc., Somerville, N.J.). Animals were allowed to ambulate, eat, and drink ad libitum immediately after surgery.
Posteroanterior radiographs of the lumbar spine were taken on each animal at 4, 6, and 8 weeks after surgery using a Faxitron LX60 cabinet radiography system and evaluated blindly by two independent observers employing the following standardized scale: 0, no fusion; 1, unilateral fusion; and 2, complete bilateral fusion. The scores from the observers were added together and only a score of 4 was considered as complete fusion.
Eight weeks after surgery, animals were euthanized and the spines were surgically removed and evaluated by two blinded independent observers for motion between levels. Nonunion was recorded if motion was observed between the facets or transverse processes on either side. Complete fusion was recorded if no motion was observed bilaterally. Spines were scored as either fused or not fused. Unanimous agreement was required to consider complete fusion.
Each removed spine was analyzed by high resolution micro-computed tomography (micro-CT), using a SkyScan 1172 scanner (SkyScan, Belgium) with a voxel isotropic resolution of 20 μm and an X-ray energy of 55 kVp and […] to further assess the fusion rate and observe the fusion mass as we have previously reported (15). Three hundred and sixty projections were acquired over an angular range of 180° with steps of 0.5 with an exposure time of 220 msec/slice. Five frames were averaged at each rotation step to get better signal to noise ratio. A 0.5 mm aluminum filter was used to narrow down the X-ray beam frequency in order to minimize beam hardening artifact. Virtual image slices were reconstructed using the cone-beam reconstruction software version 2.6 based on the Feldkamp algorithm (SkyScan). These settings produced serial cross-sectional 1024×1024 pixel images. Sample re-orientation and 2D visualization were performed using DataViewer (SkyScan). 3D visualization was performed using Dolphin Imaging version 11 (Dolphin Imaging & Management Solutions, Chatsworth, Calif.). Fusion was defined as the bilateral presence of bridging bone between the L4 and L5 transverse processes. The reconstructed images were judged to be fused or not fused by two experienced independent observers.

## CC1=C2C[C@H]3[C@@H](CC=C4C[C@@H](O)CC[C@@]43C)[C@@H]2CC[C@]12O[C@@H]1C[C@H](C)CN[C@H]1[C@H]2C [Cyclopamine]
[1]
  inhibition of Oxy133-induced ALP activity and expression of osteogenic markers: completely inhibited

## CC(C)CCCC(C)(O)C1CCC2C3CC(O)C4CC(O)CCC4(C)C3CCC21C (stereo not shown) [Oxy34]
Lewis rats [2]
  fusion at the 4 week time point in prior studies: no fusion

## C=C(C)CCC[C@](C)(O)[C@H]1CC[C@H]2[C@@H]3C[C@H](O)[C@H]4C[C@@H](O)CC[C@]4(C)[C@H]3CC[C@@]21C [Oxy49]
Lewis rats [2]
  fusion at the 4 week time point in prior studies: no fusion

## CCCCCC[C@](C)(O)[C@H]1CC[C@H]2[C@@H]3C[C@H](O)[C@H]4C[C@@H](O)CC[C@]4(C)[C@H]3CC[C@@]21C [Oxy133, (3S,5S,6S,8R,9S,10R,13S,14S,17S) 17-((S)-2-hydroxyoctan-2-yl)-10,13-dimethylhexadecahydro-1H-cyclopenta[a]phenanthrene-3,6-diol]
[3]; 100 nM
  induction of Gli-dependent reporter activity: 5 fold
[3]; at 1 Oxy133 (unit not given)
  induction of Gli-dependent reporter activity: 17 fold
Lewis rats [4]; Oxy133 0.2 mg
  Fusion Rates (%) Manual Palpation: 0%
  Fusion Rates (%) Micro-CT: 0%
  Fusion Rates (%) X-ray: 0%
Lewis rats [4]; Oxy133 2 mg
  bilateral fusion, micro-CT: 4/8
  Fusion Rates (%) Manual Palpation: 50%
  Fusion Rates (%) Micro-CT: 50%
  Fusion Rates (%) X-ray: 50%
  bilateral fusion on radiographs: 3/8
  trabecular thickness: 134.008
Lewis rats [4]; Oxy133 2 mg, after sacrifice
  bilateral fusion confirmed on manual palpation: 4/8
Lewis rats [4]; Oxy133 2 mg, eight weeks
  fusion on radiographs: 4/8
Lewis rats [4]; Oxy133 20 mg, after sacrifice
  bilateral fusion by manual assessment: 6/7
Lewis rats [4]; Oxy133 20 mg
  Fusion Rates (%) Manual Palpation: 86%
  Fusion Rates (%) Micro-CT: 100%
  Fusion Rates (%) X-ray: 100%
  bilateral fusion on radiographs: 6/7
  trabecular thickness: 124.737
